Values of other authors in US6391843B1, “Chemical linker compositions” (Colgate-Palmolive Co., priority 1996, dated 2002).

Tested on: insect
Details: hard surface cleaning composition

Substance: Methylneodecanamide [MNDA]
- amount of MNDA necessary to deposit to have one day efficacy: 10 micrograms of MNDA per cm2
